Results from patent publication US20110280958A1 (priority 2010, published 2011).

Experiments:
Alternaria solani = conditions: in vivo
Venturia inaequalis = test: Venturia test (apples)/preventive; assay type: in vivo; conditions: preventive spray, evaluated 10 days after inoculation
Procedure: Solvent: 24.5 parts by weight of acetone • 24.5 parts by weight of dimethylacetamide
Emulsifier: 1 part by weight of alkylaryl polyglycol ether
To produce a suitable preparation of active compound, 1 part by weight of active compound is mixed with the stated amounts of solvent and emulsifier, and the concentrate is diluted with water to the desired concentration. To test for preventive activity, young plants are sprayed with the preparation of active compound at the stated rate of application. After the spray coating has dried on, the plants are inoculated with an aqueous conidia suspension of the causal agent of apple scab (Venturia inaequalis) and then remain for 1 day in an incubation cabinet at approximately 20° C. and a relative atmospheric humidity of 100%. The plants are then placed in a greenhouse at approximately 21° C. and a relative atmospheric humidity of approximately 90%. The test is evaluated 10 days after the inoculation. 0% means an efficacy which corresponds to that of the untreated control, while an efficacy of 100% means that no disease is observed.

Phytophthora infestans = conditions: in vivo

SMILES | Efficacy in % found (Alternaria solani) [%] | Efficacy in % found (Venturia inaequalis; 250 ppm a.i.) [%] | Efficacy in % found (Venturia inaequalis; 25 ppm a.i.) [%] | Efficacy in % found (Phytophthora infestans) [%]
O=S(=O)([O-])[O-].[Mg+2] [(1-2), magnesium sulphate] | 0 |  |  | 
O=S(=O)([O-])[O-].[Fe+2] [(3-3), iron sulphate] | 35 | 43 |  | 
Cn1c(=O)c2sc3c(=O)n(C)c(=O)c3sc2c1=O [(I-1), 2,6-dimethyl-1H,5H-[1,4]dithiino[2,3-c:5,6-c′]dipyrrole-1,3,5,7(2H,6H)-tetrone] |  |  | 32 | 9
O=S(=O)([O-])[O-].[Mn+2] [(3-2), manganese sulphate] | 0 |  |  | 0
O=S(=O)([O-])[O-].[Zn+2] [(3-7), zinc sulphate] | 23 | 19 |  | 35
